The target of experiment [1] is T1, KDR (Homo sapiens, UniProt P35968). The experiment is described as follows: KDR HTRF in vitro kinase assay. In kind it is biochemical. The note with it: 1 mM ATP; read-out: KDR enzyme inhibition data (Ki). Further details: purified enzyme (His6-KDR 789-1354, MW 63 kD); His6 (N). The gist of the method:
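His6-KDR 789-1354 (7 ng/well) with 0.5 μM biotinylated peptide substrate and 1 mM ATP in HEPES pH 7.1, MgCl2/MnCl2, 60 min at room temperature. EDTA-quenched, detected by streptavidin-XL-665 plus Eu-kryptate anti-phosphotyrosine HTRF after 3 h; IC50 from 620/665 nm ratio.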
Target sequence in this assay (P35968 789-1354): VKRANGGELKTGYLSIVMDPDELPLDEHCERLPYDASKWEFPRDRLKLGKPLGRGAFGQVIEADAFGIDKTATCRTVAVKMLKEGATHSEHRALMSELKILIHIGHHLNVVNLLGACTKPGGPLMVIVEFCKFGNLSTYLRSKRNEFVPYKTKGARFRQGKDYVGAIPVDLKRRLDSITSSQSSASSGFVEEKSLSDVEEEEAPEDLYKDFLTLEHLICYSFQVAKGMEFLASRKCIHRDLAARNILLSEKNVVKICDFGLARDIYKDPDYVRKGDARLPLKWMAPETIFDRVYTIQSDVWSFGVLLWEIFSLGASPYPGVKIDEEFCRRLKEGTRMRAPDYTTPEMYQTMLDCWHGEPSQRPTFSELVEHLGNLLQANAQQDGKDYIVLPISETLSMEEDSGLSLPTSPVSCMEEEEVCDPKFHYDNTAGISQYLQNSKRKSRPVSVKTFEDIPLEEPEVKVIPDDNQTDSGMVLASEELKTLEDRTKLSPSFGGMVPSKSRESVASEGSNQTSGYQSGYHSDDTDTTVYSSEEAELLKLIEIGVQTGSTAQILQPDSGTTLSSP
Background: In TR-FRET formats the signal depends on donor and acceptor labels being close together.

The test system of another experiment is NCI-H1299 cells. Description: Induction of polyploidy in H1299. The experiment is classed as cell-based, Human. The note with it: NCI-H1299, 48 hours. The gist of the method:
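NCI-H1299 cells in RPMI 1640/10% FCS were treated with inhibitor concentrations in duplicate for 48 h at 37 C, then formalin-fixed and Hoechst-stained. Nuclear area was measured by high-content imaging, with polyploid (≥4N) defined as >750 μ^2. EC15 was derived by least-squares fit of log dose-response.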

Experiment [2] has as its target T1, KDR. The experiment is described as follows: KDR cellular assay (KDR receptor phosphorylation ELISA). In kind it is cell-based. Also noted: expressed in transfected cells; host or cells: 3T3 (embryonic mouse) cells. The conditions noted are these: KDR transfected 3T3 (embryonic mouse) cells, VEGF stimulated; read-out: IC50 inhibition of KDR phosphorylation. The gist of the method: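 KDR-transfected mouse 3T3 cells treated 20 min at 37° C with half-log compound dilutions, then stimulated 10 min with VEGF (100 ng/ml solution). Lysates captured on anti-KDR plates; phosphorylation by biotin antibody/streptavidin-HRP ELISA at 450 nm. IC50 by non-linear regression.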
Target sequence in this assay (P35968 20-1356): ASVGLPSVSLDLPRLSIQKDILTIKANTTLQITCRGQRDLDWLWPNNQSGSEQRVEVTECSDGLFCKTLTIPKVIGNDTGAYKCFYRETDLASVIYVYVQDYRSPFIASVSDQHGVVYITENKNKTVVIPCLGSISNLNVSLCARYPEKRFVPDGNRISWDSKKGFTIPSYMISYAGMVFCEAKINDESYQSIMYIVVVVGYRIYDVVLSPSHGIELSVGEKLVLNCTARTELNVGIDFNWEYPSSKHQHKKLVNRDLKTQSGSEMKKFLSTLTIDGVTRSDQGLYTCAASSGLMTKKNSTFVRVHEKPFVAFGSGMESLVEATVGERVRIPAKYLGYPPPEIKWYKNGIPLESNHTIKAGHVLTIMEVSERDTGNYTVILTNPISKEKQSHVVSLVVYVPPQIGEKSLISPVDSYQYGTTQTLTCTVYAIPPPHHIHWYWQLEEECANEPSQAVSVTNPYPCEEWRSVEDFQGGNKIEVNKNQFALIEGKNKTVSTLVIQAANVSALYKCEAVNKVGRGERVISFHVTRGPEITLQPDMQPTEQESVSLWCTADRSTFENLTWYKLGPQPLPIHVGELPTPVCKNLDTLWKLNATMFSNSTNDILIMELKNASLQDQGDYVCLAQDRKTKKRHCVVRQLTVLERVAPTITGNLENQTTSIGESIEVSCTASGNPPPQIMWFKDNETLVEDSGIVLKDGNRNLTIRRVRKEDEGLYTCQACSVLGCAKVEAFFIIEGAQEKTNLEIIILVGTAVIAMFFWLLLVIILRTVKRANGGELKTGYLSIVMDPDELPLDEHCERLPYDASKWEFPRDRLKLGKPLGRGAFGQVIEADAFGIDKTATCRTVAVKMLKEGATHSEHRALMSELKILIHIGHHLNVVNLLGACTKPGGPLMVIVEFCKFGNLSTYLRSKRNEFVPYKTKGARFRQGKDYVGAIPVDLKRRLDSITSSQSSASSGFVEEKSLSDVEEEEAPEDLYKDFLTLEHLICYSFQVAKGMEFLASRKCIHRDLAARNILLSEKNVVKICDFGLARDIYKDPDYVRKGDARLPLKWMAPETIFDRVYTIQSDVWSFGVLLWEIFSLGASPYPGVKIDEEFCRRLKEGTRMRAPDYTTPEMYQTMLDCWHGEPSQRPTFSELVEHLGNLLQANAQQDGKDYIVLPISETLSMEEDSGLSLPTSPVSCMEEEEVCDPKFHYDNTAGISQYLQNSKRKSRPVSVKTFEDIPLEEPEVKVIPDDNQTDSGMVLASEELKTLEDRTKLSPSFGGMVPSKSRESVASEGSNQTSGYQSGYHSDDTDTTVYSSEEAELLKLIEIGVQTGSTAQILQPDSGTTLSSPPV

The structures appear in SMILES notation.

The text below walks through data of patent publication US8426408B2, “Pyrimidine inhibitors of kinases” (AbbVie Inc., priority 2009, dated 2013).

A word on the Ki: it is the equilibrium dissociation constant of an inhibitor or competing ligand from its target. In general, IC50 refers to the point on the concentration scale where inhibition reaches its midpoint.

Consider `Cn1cc(Nc2ncc(Cl)c(N[C@@H]3[C@H](C(N)=O)[C@H]4CC[C@@H]3O4)n2)cn1.Cn1cc(Nc2ncc(Cl)c(N[C@H]3[C@@H](C(N)=O)[C@@H]4CC[C@H]3O4)n2)cn1` (mixture of isomers) [Example 141, (1S,2R,3S,4R)-3-({5-chloro-2-[(1-methyl-1H-pyrazol-4-yl)amino]pyrimidin-4-yl}amino)-7-oxabicyclo[2.2.1]heptane-2-carboxamide and (1R,2S,3R,4S)-3-({5-chloro-2-[(1-methyl-1H-pyrazol-4-yl)amino]pyrimidin-4-yl}amino)-7-oxabicyclo[2.2.1]heptane-2-carboxamide], for which, at KDR [1], the inhibition constant (Ki) is < 100 nM. In addition, the “EC15 (concentration of inhibitor necessary to induce polyploidy in 15% of cells)” value with NCI-H1299 cells was “B (“B” represents an EC15 of between 0.1 μM and 1 μM)”. Also, on KDR [2], the IC50 was 100 to 1000 nM.
As for `Cn1cc(Nc2ncc(Cl)c(N[C@@H]3[C@@H]4CC[C@@H](C4)[C@@H]3C(N)=O)n2)cn1.Cn1cc(Nc2ncc(Cl)c(N[C@H]3[C@H]4CC[C@H](C4)[C@H]3C(N)=O)n2)cn1` (mixture of isomers) [Example 113, (1R,2R,3S,4S)-3-({5-chloro-2-[(1-methyl-1H-pyrazol-4-yl)amino]pyrimidin-4-yl}amino)bicyclo[2.2.1]heptane-2-carboxamide and (1S,2S,3R,4R)-3-({5-chloro-2-[(1-methyl-1H-pyrazol-4-yl)amino]pyrimidin-4-yl}amino)bicyclo[2.2.1]heptane-2-carboxamide], at KDR [1], the Ki was < 100 nM. The “EC15 (concentration of inhibitor necessary to induce polyploidy in 15% of cells)” value with NCI-H1299 cells is “A (“A” represents an EC15 of less than 0.1 μM)”. The half-inhibitory concentration (IC50) on KDR [2] was in the range of 100 to 1000 nM.
As for `NC(=O)[C@@H]1[C@H](Nc2nc(Nc3cnn(Cc4ccccc4Cl)c3)ncc2Cl)[C@H]2C=C[C@@H]1C2` [Example 161, (1S,2S,3R,4R)-3-[(5-chloro-2-{[1-(2-chlorobenzyl)-1H-pyrazol-4-yl]amino}pyrimidin-4-yl)amino]bicyclo[2.2.1]hept-5-ene-2-carboxamide], at KDR [1], the inhibition constant (Ki) was < 100 nM. For the same compound, the EC15 in the experiment with NCI-H1299 cells (Homo sapiens, read-out: EC15 (concentration of inhibitor necessary to induce polyploidy in 15% of cells)) is < 100 nM. At KDR [2], the IC50 was < 100 nM.
